Reference: patent US20260207621A1 (Vividion Therapeutics, Inc., priority 2022, published 2026)

Key:
[1] = biological target: T1, KEAP1 C151 (Homo sapiens, UniProt Q14145); assay: Nrf2 TMT measurement: in vitro TE50 for KEAP1 C151 (IA-DTB competition, targeted TMT mass spectrometry) in MDA-MB-468 cell lysate; type: binding; conditions: in vitro target engagement of KEAP1 C151, targeted TMT, read-out: KEAP1_C151 TE50
T1 construct: treating 500 μg of cell lysate generated from MDA-MB-468 breast cancer cells with DMSO or compound; endogenous in cells; host or cells: MDA-MB-468 breast cancer cell lysate
Procedure, shortened: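 Occupancy of KEAP1 C151 measured as loss of IA-DTB labeling (200 μM, 1 h, room temperature) after 1 h compound pre-treatment of MDA-MB-468 cell lysate.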

[2] = system: Nrf2; assay: Nrf2 antagonism assay: ARE luciferase reporter in KYSE-70 cells; type: cell-based; conditions: positive Imax corresponds to Nrf2 antagonism; for Emax: Homo sapiens, KYSE-70, KYSE-70 cells, read-out: KYSE70 Cellular ARE Luciferase Imax (%); for KYSE70 Cellular ARE Luciferase Imax (%): KYSE-70 cells
Procedure, shortened: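 Dose-response curves give IC50 and Imax, with positive Imax read as Nrf2 antagonism, i.e. reduced luciferase signal. Reporter cells are Nrf2-high KYSE-70 (Nrf2 W24C mutant) bearing ARE-controlled luciferase. Antagonists are proposed to act at KEAP1 C151, speeding Nrf2 degradation.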

T1 sequence (Q14145 whole entry): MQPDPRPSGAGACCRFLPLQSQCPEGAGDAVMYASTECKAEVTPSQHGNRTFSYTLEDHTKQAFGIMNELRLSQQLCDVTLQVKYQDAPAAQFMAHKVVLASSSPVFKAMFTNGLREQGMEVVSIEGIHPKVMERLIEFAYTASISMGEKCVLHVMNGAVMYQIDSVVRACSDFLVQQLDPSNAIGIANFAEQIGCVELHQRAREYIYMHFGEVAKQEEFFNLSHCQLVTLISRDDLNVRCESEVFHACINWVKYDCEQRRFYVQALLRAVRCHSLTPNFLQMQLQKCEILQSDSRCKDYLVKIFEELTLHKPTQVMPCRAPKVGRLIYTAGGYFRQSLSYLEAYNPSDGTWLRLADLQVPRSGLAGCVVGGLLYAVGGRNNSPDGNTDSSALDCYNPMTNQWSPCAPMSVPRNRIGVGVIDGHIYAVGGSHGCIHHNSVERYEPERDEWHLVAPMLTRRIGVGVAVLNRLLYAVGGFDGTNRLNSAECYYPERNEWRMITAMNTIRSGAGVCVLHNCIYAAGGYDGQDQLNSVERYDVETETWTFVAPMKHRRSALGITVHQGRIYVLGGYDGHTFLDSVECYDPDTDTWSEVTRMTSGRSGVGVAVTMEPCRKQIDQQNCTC

Row | SMILES | IC50 [1] [nM] | Emax [2] [%] | KYSE70 Cellular ARE Luciferase Imax (%) [2] [%]
1 | C=CC(=O)N1CCOC[C@H]1c1cc(Cl)cc(-c2nc(N)nc(NC)n2)c1 (single isomer, unassigned) [Compound 218] | 16 | 92 | –
2 | C=CC(=O)N1CCOC[C@H]1c1cc(Cl)cc(-c2ncn(CC(N)=O)n2)c1 (single isomer, unassigned) [Compound 62] | 220 | 55 | –
3 | C=CC(=O)N1CCOC[C@H]1c1cc(Cl)cc(-c2ncnc3[nH]cnc23)c1 (single isomer, unassigned) [Compound 58] | 30.5 | 95 | –
4 | C=CC(=O)N1CCOCC1c1cc(Cl)cc(-c2ccncn2)c1 (single isomer, unassigned) [Compound 42, 1-(3-(3-chloro-5-(pyrimidin-4-yl)phenyl)morpholino)prop-2-en-1-one] | 37 | 79 | –
5 | C=CC(=O)N1CCOCC1c1cc(Cl)cc(-c2ccnc(C(N)=O)n2)c1 (single isomer, unassigned) [Compound 89, 4-(3-(4-acryloylmorpholin-3-yl)-5-chlorophenyl)pyrimidine-2-carboxamide] | 36 | 73 | –
6 | C=CC(=O)N1CCOC[C@H]1c1cc(Cl)cc(-c2cnc(N)c(OC)n2)c1 (single isomer, unassigned) [Compound 255] | 50 | 93 | –
7 | C=CC(=O)N1CCOCC1c1cc(Cl)cc(-c2ccnc(C)n2)c1 (single isomer, unassigned) [Compound 35, 1-(3-(3-chloro-5-(2-methylpyrimidin-4-yl)phenyl)morpholino)prop-2-en-1-one] | 17.8 | 89 | –
8 | C=CC(=O)N1CCOC[C@H]1c1cc(Cl)cc(N2CCC(N)C2=O)c1 (single isomer, unassigned) [Compound 230] | 820 | 51 | –
9 | C=CC(=O)N1CCS(=O)(=O)CC1c1cc(Cl)cc(-c2ncccn2)c1 (single isomer, unassigned) [Compound 31, 1-(3-(3-chloro-5-(pyrimidin-2-yl)phenyl)-1,1-dioxidothiomorpholino)prop-2-en-1-one] | 36 | 66 | –
10 | C=CC(=O)N1CC2(CC2)OCC1c1cc(Cl)nc(-c2cc(N)ncn2)c1 (single isomer, unassigned) [Compound 174, 1-(6-(2-(6-aminopyrimidin-4-yl)-6-chloropyridin-4-yl)-4-oxa-7-azaspiro[2.5]octan-7-yl)prop-2-en-1-one] | 76 | – | 51
11 | C=CC(=O)N1CC(F)(F)CCC1c1cc(Cl)cc(-c2ncc(N)cn2)c1 (single isomer, unassigned) [Compound 238, 1-(2-(3-(5-aminopyrimidin-2-yl)-5-chlorophenyl)-5,5-difluoropiperidin-1-yl)prop-2-en-1-one] | 34 | 82 | –
12 | C=CC(=O)N1CCOC[C@H]1c1cc(Cl)cc(-c2ncc(F)c(N)n2)c1 (single isomer, unassigned) [Compound 263] | 19 | 93 | –
13 | C=CC(=O)N1CCOC[C@H]1c1cc(Cl)cc(-c2ncc(N)c(N)n2)c1 [Compound 253, (R)-1-(3-(3-chloro-5-(4,5-diaminopyrimidin-2-yl)phenyl)morpholino)prop-2-en-1-one] | 50 | 93 | –
14 | C=CC(=O)N1[C@H](C)COC[C@H]1c1cc(Cl)nc(-c2ccc(F)c(C(N)=O)c2)c1 (single isomer, unassigned) [Compound 139] | 74 | 90 | –
15 | C=CC(=O)N1CCOC[C@H]1c1cc(Cl)cc(-c2ncnc(NC)n2)c1 (single isomer, unassigned) [Compound 214] | 100 | 93 | –
16 | C=CC(=O)N1CCOCC12COc1c(-c3ccnc(N)n3)cc(Cl)cc12 (single isomer, unassigned) [Compound 158, 1-(7-(2-aminopyrimidin-4-yl)-5-chloro-2H-spiro[benzofuran-3,3′-morpholino]-4′-yl)prop-2-en-1-one] | 2720 | 71 | –
17 | C=CC(=O)N1CCOC[C@H]1c1cc(Cl)cc(-c2cnc(F)c(N)n2)c1 (single isomer, unassigned) [Compound 279] | 45 | 92 | –
18 | C=CC(=O)N1CCOC[C@H]1c1cc(Cl)cc(-c2nc(N)nc(N)n2)c1 (single isomer, unassigned) [Compound 191] | 12 | 93 | –
19 | C=CC(=O)N1CC2(CCCC2)OCC1(C)c1cc(Cl)cc(-c2ncc(F)cn2)c1 (single isomer, unassigned) [Compound 166, 1-(8-(3-chloro-5-(5-fluoropyrimidin-2-yl)phenyl)-8-methyl-6-oxa-9-azaspiro[4.5]decan-9-yl)prop-2-en-1-one] | 530 | 50 | –

Row | SMILES | IC50 [1] [nM] | Emax [2] [%] | KYSE70 Cellular ARE Luciferase Imax (%) [2] [%]
20 | C=CC(=O)N1CCOC[C@H]1c1cc(Cl)cc(-c2ccncc2)c1 (single isomer, unassigned) [Compound 126] | 50 | 72 | –
21 | C=CC(=O)N1CCS(=O)(=O)CC1c1cc(Cl)cc(-c2cc(C)ncn2)c1 (single isomer, unassigned) [Compound 52, 1-(3-(3-chloro-5-(6-methylpyrimidin-4-yl)phenyl)-1,1-dioxidothiomorpholino)prop-2-en-1-one] | 174 | 80 | –
22 | C=CC(=O)N1CCOCC1c1cc(Cl)nc(-c2ccnc(C)n2)c1 (single isomer, unassigned) [Compound 121, 1-(3-(2-chloro-6-(2-methylpyrimidin-4-yl)pyridin-4-yl)morpholino)prop-2-en-1-one] | 26 | 82 | –
23 | C=CC(=O)N1CCOC[C@H]1c1cc(Cl)cc(-c2nccc(C)n2)c1 (single isomer, unassigned) [Compound 87] | 10 | 81 | –
24 | C=CC(=O)N1CC2(CC2)OCC1c1cc(Cl)cc(-c2ccnc(C(N)=O)c2)c1 (single isomer, unassigned) [Compound 122, 4-(3-(7-acryloyl-4-oxa-7-azaspiro[2.5]octan-6-yl)-5-chlorophenyl)picolinamide] | 11 | 88 | –
25 | C=CC(=O)N1CCOC[C@H]1c1cc(Cl)cc(-c2ccc3c(c2)C(=O)NC3)c1 (single isomer, unassigned) [Compound 82] | < 10 | 77 | –
26 | C=CC(=O)N1CCOCC1c1cc(Cl)cc(-c2ccc(C(N)=O)cc2)c1 (single isomer, unassigned) [Compound 70, 3′-(4-acryloylmorpholin-3-yl)-5′-chloro-[1,1′-biphenyl]-4-carboxamide] | 54 | 81 | –
27 | C=CC(=O)N1CC2(CC2)OCC1(C)c1cc(Cl)cc(-c2ccnc(N)n2)c1 (single isomer, unassigned) [Compound 161, 1-(6-(3-(2-aminopyrimidin-4-yl)-5-chlorophenyl)-6-methyl-4-oxa-7-azaspiro[2.5]octan-7-yl)prop-2-en-1-one] | 870 | 83 | –
28 | C=CC(=O)N1CCS(=O)(=O)CC1c1cc(Cl)cc(-c2ccnc(C)n2)c1 (single isomer, unassigned) [Compound 50, 1-(3-(3-chloro-5-(2-methylpyrimidin-4-yl)phenyl)-1,1-dioxidothiomorpholino)prop-2-en-1-one] | 573 | 86 | –
29 | C=CC(=O)N1C[C@@H](C)N(C(C)=O)C[C@@H]1c1cc(Cl)cc(-c2ncc(N)cn2)c1 (single isomer, unassigned) [Compound 236] | 25 | – | 87
30 | C=CC(=O)N1CC(C)(C)OC[C@H]1c1cc(Cl)cc(-c2ccnc(N)n2)c1 (single isomer, unassigned) [Compound 148] | 51 | 93 | –
31 | C=C(Cl)C(=O)N1CCOC[C@H]1c1cc(Cl)cc(-c2ncnc(N)n2)c1 (single isomer, unassigned) [Compound 294] | 1380 | 91 | –
32 | C=CC(=O)N1CCOC[C@H]1c1cc(Cl)cc(-c2nc(N)nc(NCCCN(C)C)n2)c1 (single isomer, unassigned) [Compound 229] | 560 | 92 | –
33 | C=CC(=O)N1CCOCC1c1cc(Cl)cc(-c2nc[nH]n2)c1 (single isomer, unassigned) [Compound 41, 1-(3-(3-chloro-5-(1H-1,2,4-triazol-3-yl)phenyl)morpholino)prop-2-en-1-one] | 200 | 68 | –
34 | C=CC(=O)N1CCOC[C@H]1c1cc(Cl)cc(-c2nc(O)n[nH]2)c1 (single isomer, unassigned) [Compound 210] | 380 | 55 | –
35 | C=CC(=O)N1CC(C)(C)OC[C@H]1c1cc(Cl)cc(-c2cc(N)ncn2)c1 (single isomer, unassigned) [Compound 149] | 15 | 95 | –
36 | C=CC(=O)N1CCOCC1c1cc(Cl)cc(-c2cc(=O)[nH]cn2)c1 (single isomer, unassigned) [Compound 94, 6-(3-(4-acryloylmorpholin-3-yl)-5-chlorophenyl)pyrimidin-4(3H)-one] | 16 | 87 | –
37 | C=CC(=O)N1CCOCC1c1cc(Cl)cc(-c2cc(C(N)=O)ncn2)c1 (single isomer, unassigned) [Compound 107, 6-(3-(4-acryloylmorpholin-3-yl)-5-chlorophenyl)pyrimidine-4-carboxamide] | 18 | 92 | –
